In US8138179B2, “Spiro-imidazo compounds” (Novartis AG, priority 2006, dated 2012):

Key:
plasma aldosterone = test: In vivo suppression of plasma aldosterone levels in ACTH-stimulated rats; parameters: species or system Wistar rats; conditions: 4 mg/kg p.o.; plasma level 2 h after administration relative to 1 h prior to administration
Method: (§1) The aldosterone- and corticosterone-suppressing activity of herein described compounds may be assessed with the following in vivo protocol.
(§2) Adult male Wistar rats weighing between 250 and 350 grams are kept under the usual 12 hour light and 12 hour dark conditions at a temperature of 23° C.±2° C. On the first day of the experiment, the animals receive a subcutaneous injection of a depot ACTH product in a dose of 1.0 mg/kg weight (SYNACTHEN-Depot, Novartis, Basel, CH) 16 hours prior to the administration of a test compound. […] An alternative method to stimulate aldosterone secretion consists in subjecting rats to a low salt diet for 48 hours and applying the diuretic furosemide at 10 mg/kg by subcutaneous or intraperitoneal administration 16 hours, respectively 2 hours prior to the start of the experiment. […] The aldosterone and corticosterone concentrations of the plasma samples can be determined with a radioimmunoassay as described above for the in vitro test systems.
(§3) The selective suppression of plasma steroid levels as for instance aldosterone in comparison to corticosterone may serve as a measure for in vivo bioavailability and pharmacodynamic enzyme inhibitory activity of the herein described compounds. The evaluation of the data may occur relative to the application of vehicle or quantitatively by determination of the area under the curve (AUC). […]

plasma corticosterone = test: In vivo suppression of plasma corticosterone levels in ACTH-stimulated rats; parameters: species or system Wistar rats; conditions: 4 mg/kg p.o.; plasma level 2 h after administration relative to 1 h prior to administration
Method: as §1, §2, §3

SMILES: N#Cc1ccc2c(c1)C1(CCC2)OCCn2cncc21 (centres unmarked) [Example 10, spiro-[(5,6-Dihydro-8H-imidazo[5,1-c][1,4]oxazine)-8,8′-(5′,6′,7′,8′-tetrahydronaphthalene-2′-carbonitrile)]]
- Aldosterone levels (% change at 2 h) (plasma aldosterone): −81.7%
- Corticosterone levels (% change at 2 h) (plasma corticosterone): −14.5%
